Active and inactive are the calls of the source. The rule behind the calls is not given here.

One series concerns Salmonidae. Put plainly: Binding affinity to salmon sperm DNA assessed as DNA intercalation at 0.04 mole fraction after 5 mins by UV-Vis spectroscopic method.
Series [1] is described as follows: Binding affinity to synthetic biotin-labeled 30-mer AT-rich duplex DNA in pH 7.4 EDTA buffer solution in presence of 0.05 M NaCl at 25 degC by QCM sensogram analysis.
Series [2] is described as follows: Binding affinity to synthetic biotin-labeled 30-mer GC-rich duplex DNA in pH 7.4 EDTA buffer solution in presence of 0.05 M NaCl at 25 degC by QCM sensogram analysis.
Series [3] can be described thus: Binding affinity to synthetic biotin-labeled 30-mer GC-rich duplex DNA in pH 7.4 EDTA buffer solution in presence of 50 mM NaCl at 25 degC by QCM sensogram analysis.
A short description of series [4]: Binding affinity to synthetic biotin-labeled 30-mer GC-rich duplex DNA in pH 7.4 EDTA buffer solution in presence of 200 mM NaCl at 25 degC by QCM sensogram analysis.
Series [5] is described as follows: Ratio of Ka for synthetic biotin-labeled 30-mer GC-rich duplex DNA in presence of 200 mM NaCl to Ka for synthetic biotin-labeled 30-mer GC-rich duplex DNA in presence of 50 mM NaCl.
Series [6] is described as follows: Cytotoxicity against mouse Sarcoma 180 cells assessed as reduction in cell viability after 72 hrs by MTT assay. The series is classed as functional, cell-based. The settings on record: Sarcoma-180, 72 h. In general terms: Tetrazolium assays rely on reduction of a dye to a coloured formazan, in cell work by metabolically active cells.
Series [7] in a line: Cytotoxicity against mouse NIH/3T3 cells assessed as reduction in cell viability after 72 hrs by MTT assay. The series is classed as toxicity, cell-based, NIH3T3.
The next series relates to HeLa S3. Put plainly: Selectivity ratio of IC50 for human HeLaS3 cells to IC50 for mouse Sarcoma 180 cells. Format: functional.
Series [8] can be described thus: Selectivity index, ratio of IC50 for mouse NIH/3T3 cells to IC50 for mouse Sarcoma 180 cells. The series is classed as functional.
Series [9] in a line: Cytotoxicity against human HeLaS3 cells assessed as reduction in cell viability after 72 hrs by MTT assay. Format: functional, cell-based. The note with it: HeLa S3, 72 h.

As to `CNC(=O)NCCOCC[n+]1ccc2c(C)c3[nH]c4ccccc4c3c(C)c2c1`, the result in the series on Salmonidae was Active. Moreover, the Ka in series [1] stood at 3.59 ×10⁵ /M; in series [2], 9.9 ×10⁵ /M; in series [3], 9.92 ×10⁵ /M; in series [4], 5.99 ×10⁵ /M. The Ratio in series [5] lay within 0.4 to 0.5.

Usually IC50 stands for the concentration needed to halve the response being measured. Turning to `Cc1c2cc[n+](CCOCCN)cc2c(C)c2c1[nH]c1ccc(O)cc12.[Cl-]`, in the series with Salmonidae, the result was Active. Besides, in series [6], the IC50 was 1 µM. Besides, in series [7], the IC50 at 72 h was determined as 2.4 µM. Besides, the results for the “Ratio IC50” value (with HeLa S3; in series [8]) were 13 - 37 and 3 - 24, respectively.

In the case of `CNC(=O)NCCNC(=O)c1c2ccncc2c(C)c2c1[nH]c1ccc(OC)cc12`, in series [9], the IC50 was determined as 7.6 µM.

Consider `COC(=O)c1c2cc[n+](C)cc2c(C)c2c1[nH]c1ccccc12`, for which the outcome in the series with Salmonidae was Active. The IC50 in series [6] was determined as 1 µM; in series [9], 1.2 µM. The IC50 at 72 h in series [7] worked out at 1.2 µM.

Take `CNC(=O)NCCOCC[n+]1ccc2c(C)c3c(c(C)c2c1)c1cc(O)ccc1n3C`: the outcome in the series on Salmonidae was Active. The IC50 in series [6] was found to be 2.7 µM. For the same molecule, the IC50 at 72 h in series [7] came to 1.6 µM.

In the case of `Cc1c2ccncc2c(C)c2c1[nH]c1ccc(O)cc12`, the outcome in the series with Salmonidae was Active. Besides, the IC50 in [6] is 0.44 µM. Further, the IC50 at 72 h in [7] worked out at 0.9 µM.

In the case of `Cc1c2ccncc2c(C)c2c1[nH]c1ccccc12` [ELLIPTECINE], the outcome in the series on Salmonidae was Active. Moreover, the figures for the IC50 in [6] and in series [9] were 2 µM and 2.1 µM, respectively. Besides, the IC50 at 72 h in [7] stood at 0.3 µM.

On to `CNC(=O)NCCNCCNC(=O)c1c2cc[n+](C)cc2c(C)c2c1[nH]c1ccccc12`, for which the IC50 in series [6] was 78 µM; in series [9], more than 100 µM. Moreover, the IC50 at 72 h in series [7] came out at 45 µM.

As to `COc1ccc2[nH]c3c(C(=O)NCCN)c4cc[n+](C)cc4c(C)c3c2c1`, in the series with Salmonidae, the outcome was Active. Besides, the half-inhibitory concentration (IC50) in series [6] is 58 µM; in [9], more than 100 µM.

For `Cc1c2c[n+](C)ccc2c(C(=O)NCCCCN)c2[nH]c3ccccc3c12`, the result with Salmonidae was Active. The IC50 in series [6] and in series [9] was more than 100 µM in each case. Also, the IC50 at 72 h in series [7] is more than 100 µM.

`Cc1c2c[n+](C)ccc2c(C(=O)NCCNCCN)c2[nH]c3ccccc3c12`: in the series on Salmonidae, the outcome was Active. Further, in series [6], the IC50 was more than 100 µM. In addition, in series [7], the IC50 at 72 h worked out at 86 µM.

Turning to `COc1ccc2[nH]c3c(C(=O)NCCN)c4ccncc4c(C)c3c2c1`, the IC50 in series [9] was 1.04 µM.

On to `Cc1c2cnccc2c(C(=O)NCCN)c2[nH]c3ccccc3c12`, for which the result in the series on Salmonidae was Active. For the same molecule, the IC50 was 2.2 µM in series [6] and 2.4 µM in [9]. The IC50 at 72 h in series [7] came out at 1.4 µM.

As for `CNC(=O)NCCOCC[n+]1ccc2c(C(=O)OC)c3[nH]c4ccccc4c3c(C)c2c1`, in the series with Salmonidae, the result was Active. The Ka is 7.41 ×10⁵ /M in series [1] and 14.8 ×10⁵ /M in series [2].

For `CNC(=O)NCCNC(=O)c1c2ccncc2c(C)c2c1[nH]c1ccccc12`, the outcome with Salmonidae was Active. Moreover, the IC50 in series [6] and in [9] was 15 µM each time. For the same molecule, the IC50 at 72 h in series [7] is 11 µM.

As to `COC(=O)c1c2cc[n+](CCN)cc2c(C)c2c1[nH]c1ccccc12.[Cl-]`, the result in the series with Salmonidae was Active. Besides, the IC50 in series [6] was found to be 0.52 µM. The IC50 at 72 h in series [7] worked out at 0.78 µM. Moreover, the results for the “Ratio IC50” value (in the series on HeLa S3; in series [8]) were 13 - 37 and 3 - 24, respectively.

On to `COC(=O)c1c2cc[n+](CCNCCN)cc2c(C)c2c1[nH]c1ccccc12`, for which, in the series on Salmonidae, the result was Active. In addition, in series [6], the IC50 worked out at 1.2 µM. In addition, in series [7], the IC50 at 72 h was 1.87 µM.

As to `CNC(=O)NCCNC(=O)c1c2cc[n+](C)cc2c(C)c2c1[nH]c1ccc(OC)cc12`, the outcome in the series with Salmonidae was Active. Besides, the IC50 in series [9] was found to be 32 µM.

As to `CNC(=O)NCCCCNC(=O)c1c2ccncc2c(C)c2c1[nH]c1ccccc12`, the Ka came out at 0.185 ×10⁵ /M in series [1] and 0.427 ×10⁵ /M in series [2].

As to `Cc1c2cc[n+](C)cc2c(C)c2c1[nH]c1ccccc12`, in the series on Salmonidae, the outcome was Active. Further, the IC50 in series [6] was 0.7 µM; in series [9], 2.9 µM. Moreover, the IC50 at 72 h in series [7] was determined as 2 µM.

Regarding `Cc1c2c[n+](C)ccc2c(C(=O)NCCCCCN)c2[nH]c3ccccc3c12`, the outcome with Salmonidae was Active. Further, the IC50 was 21 µM in [6] and more than 100 µM in [9]. Also, the IC50 at 72 h in series [7] is 32 µM.

As for `CNC(=O)NCCOCC[n+]1ccc2c(C)c3[nH]c4ccc(O)cc4c3c(C)c2c1.[Cl-]`, in the series with Salmonidae, the outcome was Active. For the same molecule, the IC50 in [6] amounted to 2.2 µM. Further, the IC50 at 72 h in [7] is 5 µM. Also, the results for the “Ratio IC50” value (with HeLa S3; in [8]) were 13 - 37 and 3 - 24, respectively.

As to `CNC(=O)NCCNC(=O)c1c2cc[n+](C)cc2c(C)c2c1[nH]c1ccccc12`, the result with Salmonidae was Active. The IC50 in series [6] and in series [9] was more than 100 µM each time. Moreover, the IC50 at 72 h in series [7] was more than 100 µM.

Regarding `CNC(=O)NCCCCC[n+]1ccc2c(C)c3c(c(C)c2c1)c1cc(O)ccc1n3C`, the Ka in series [1] was found to be 15.8 ×10⁵ /M; in [2], 28.5 ×10⁵ /M; in series [3], 28.5 ×10⁵ /M; in series [4], 17.9 ×10⁵ /M. Besides, in series [5], the Ratio was in the range of 0.4 to 0.5.

For `CNC(=O)NCCCNC(=O)c1c2cc[n+](C)cc2c(C)c2c1[nH]c1ccccc12`, the result in the series with Salmonidae was Active. The IC50 was 34 µM in [6] and more than 22 µM in series [9]. For the same molecule, the IC50 at 72 h in [7] was determined as 31 µM.

As to `Cc1c2c[n+](C)ccc2c(C(=O)NCCOCCN)c2[nH]c3ccccc3c12`, in the series with Salmonidae, the outcome was Active. The results for the IC50 in [6] and in series [9] were 48 µM and more than 100 µM, respectively. Moreover, in series [7], the half-inhibitory concentration (IC50) at 72 h worked out at 60 µM.

On to `Cc1c2cc[n+](CCN)cc2c(C)c2c1[nH]c1ccccc12`, for which the outcome with Salmonidae was Active. Besides, the IC50 is 3.2 µM in [6] and 6.58 µM in [9].

In the case of `Cc1c2cc[n+](CCOCCN)cc2c(C)c2c1[nH]c1ccccc12.[Cl-]`, in the series with Salmonidae, the outcome was Active. Moreover, the IC50 in series [6] amounted to 0.8 µM. The IC50 at 72 h in series [7] was found to be 8.8 µM. The “Ratio IC50” value in the series with HeLa S3 is listed as 13 - 37; in series [8], 3 - 24.

On to `Cc1c2c[n+](CCN)ccc2cc2[nH]c3ccccc3c12`, for which the result with Salmonidae was Active. Besides, the Ka worked out at 4.29 ×10⁵ /M in series [1] and 8.33 ×10⁵ /M in series [2].

On to `Cc1c2c[n+](C)ccc2c(C(=O)NCCN)c2[nH]c3ccccc3c12`, for which, in the series on Salmonidae, the outcome was Active. Moreover, the values for the IC50 in series [6] and in series [9] were 55 µM and more than 100 µM, respectively. Also, in series [7], the IC50 at 72 h turned out to be 70 µM.

As to `Cc1c2cnccc2c(C)c2c1c1ccccc1n2C`, the result in the series with Salmonidae was Active. The IC50 amounted to 0.5 µM in series [6] and 0.93 µM in [9].

As for `Cc1c2c[n+](CCOCCN)ccc2c(C)c2c1c1cc(O)ccc1n2C`, the result with Salmonidae was Active. Also, the Ka in [1] came to 102 ×10⁵ /M; in series [2] it was 311 ×10⁵ /M; in series [3] it was 311 ×10⁵ /M; in [4] it was 162 ×10⁵ /M. In addition, in series [5], the Ratio was in the range of 0.4 to 0.5.

Take `CNC(=O)NCCOCCNC(=O)c1c2cc[n+](C)cc2c(C)c2c1[nH]c1ccccc12`: the result with Salmonidae was Active. For the same molecule, the IC50 in series [6] is 41 µM. Besides, the IC50 at 72 h in series [7] turned out to be 18 µM.

In the case of `Cc1c2c[n+](CCCCCN)ccc2c(C)c2c1c1cc(O)ccc1n2C.[Cl-]`, in the series on Salmonidae, the result was Active. In series [6], the IC50 was 1.4 µM. In addition, the entries for the “Ratio IC50” value (in the series with HeLa S3; in series [8]) were 13 - 37 and 3 - 24, respectively.

With `Cc1c2c[n+](C)ccc2c(C(=O)NCCCN)c2[nH]c3ccccc3c12`, the outcome in the series on Salmonidae was Active. In addition, the IC50 is 26 µM in series [6] and more than 26 µM in series [9]. Also, the IC50 at 72 h in [7] was determined as 42 µM.

On to `COC(=O)c1c2cc[n+](CCOCCN)cc2c(C)c2c1[nH]c1ccccc12.[Cl-]`, for which, in the series on Salmonidae, the outcome was Active. In series [6], the IC50 turned out to be 1.12 µM. Moreover, in series [7], the IC50 at 72 h came to 1.75 µM. Moreover, the “Ratio IC50” value with HeLa S3 is recorded as 13 - 37; in series [8], 3 - 24.

Regarding `CNC(=O)NCCCCNC(=O)c1c2cc[n+](C)cc2c(C)c2c1[nH]c1ccccc12`, the outcome in the series with Salmonidae was Active. Besides, the IC50 in series [6] was more than 88 µM; in series [9], 96 µM. In [7], the IC50 at 72 h is more than 100 µM.

As for `Cc1c2cnccc2c(C(=O)NCCCCN)c2[nH]c3ccccc3c12`, the Ka was found to be 0.279 ×10⁵ /M in series [1] and 0.733 ×10⁵ /M in [2].

As for `CNC(=O)NCCCCCNC(=O)c1c2cc[n+](C)cc2c(C)c2c1[nH]c1ccccc12`, the outcome in the series with Salmonidae was Active. For the same molecule, the figures for the IC50 in series [6] and in series [9] were 80 µM and more than 100 µM, respectively. In addition, in series [7], the IC50 at 72 h stood at 37 µM.

(Values after ChEMBL document CHEMBL3877309, “Determination of binding modes and binding constants for the complexes of 6H-pyrido[4,3-b]carbazole derivatives with DNA” (Bioorg Med Chem, 2017).)
